Source: ChEMBL document CHEMBL5727290, “6-(5-hydroxy-1H-pyrazol-1-yl)nicotinamide inhibitors of PHD” (2019)
pIC50: −log10 of the molar value.

target: Egl nine homolog 1 (Homo sapiens, UniProt Q9GZT9); experiment: Inhibition Assay: The IC50 values for the PHD2 enzyme (residues 181-417) were determined by mixing increasing amounts of inhibitor with a fixed amount of enzyme (5 nM, final concentration) and Biotin labeled peptide (Biotin-Asp-Leu-Glu-Met-Leu-Ala-Pro-Tyr-Ile-Pro-Met-Asp-Asp-Asp-Phe-Gln-Leu, 1 uM final concentration) and 2-Oxyglutarate (2 uM final concentration) in 50 mM HEPES, 50 mM KCl, 0.5 mM TCEP, 2 uM FeCl2, 0.1 mg/ml BSA, at pH 7.3. The reaction was conducted by pre-incubating the enzyme in the presence of inhibitor for 60 min at room temperature. The activity of the free enzyme was measured by adding the peptide, the 2-Oxoglutarate (see above for final concentrations), and Ascorbic Acid (1 mM final concentration). The enzymatic activity was quenched after 60 min by adding an excess of a tight binding inhibitor to the assay mixture. The amount of product released was measured by using a LC/MS system (Agilent HPLC with Applied Biosystems API3000 Mass Spectrometer).
Sequence (Q9GZT9 whole entry, the tested form may be a part): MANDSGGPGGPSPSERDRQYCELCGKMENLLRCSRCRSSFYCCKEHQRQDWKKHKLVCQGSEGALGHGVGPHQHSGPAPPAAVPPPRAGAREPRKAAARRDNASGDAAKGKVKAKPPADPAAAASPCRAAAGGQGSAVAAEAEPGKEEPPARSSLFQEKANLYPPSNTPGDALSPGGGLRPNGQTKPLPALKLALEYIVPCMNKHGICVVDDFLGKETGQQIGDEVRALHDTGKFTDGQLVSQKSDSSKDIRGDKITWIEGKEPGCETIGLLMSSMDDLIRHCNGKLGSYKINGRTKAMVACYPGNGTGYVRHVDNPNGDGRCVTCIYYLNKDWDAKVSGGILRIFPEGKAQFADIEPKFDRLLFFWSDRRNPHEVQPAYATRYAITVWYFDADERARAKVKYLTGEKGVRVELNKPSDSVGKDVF

| SMILES | pIC50 |
| --- | --- |
| COc1cc(-c2cnn(-c3ccc(C(=O)NCCCN4CCCC4)cn3)c2O)ccn1 | 7.01 |
| CN1CCC(NC(=O)c2ccc(-n3ncc(-c4ccc(C#N)cc4)c3O)nc2)CC1=O (stereo unspecified) | 6.89 |
| COCCNC(=O)c1cnc(-n2ncc(-c3ccc(C#N)cc3)c2O)cc1C | 7.01 |
| COc1cc(-c2cnn(-c3ccc(C(=O)NCCC4CCCN4C)cn3)c2O)ccn1 (stereo unspecified) | 6.90 |
| COc1cc(-c2cnn(-c3ccc(C(=O)NCCCN4CCCCC4)cn3)c2O)ccn1 | 7.06 |

Molecules with a higher pIC50, results first:

| pIC50 | SMILES |
| --- | --- |
| 7.11 | CCN1CCC(NC(=O)c2ccc(-n3ncc(-c4ccnc(OC)c4)c3O)nc2)CC1 |
| 7.18 | COc1cc(C#N)ccc1-c1cnn(-c2ccc(C(=O)NCCC3CCCO3)cn2)c1O (stereo unspecified) |
| 7.25 | CCN1CCC(CN(C)C(=O)c2ccc(-n3ncc(-c4ccc(C#N)cc4)c3O)nc2)C1 (stereo unspecified) |
| 7.29 | COc1cc(-c2cnn(-c3ccc(C(=O)NCCCN4CCCC4=O)cn3)c2O)ccn1 |
| 7.43 | COc1cc(-c2cnn(-c3ccc(C(=O)NCCCn4ccnc4)cn3)c2O)ccn1 |
| 8.00 | CC(C)(C)NC(=O)c1ccc(-n2ncc(-c3cccnc3)c2O)nc1 |
